Measurements as given in US20210330744A1, “Methods and Compositions for Treating Neurodegeneration and Fibrosis” (Temple University-Of The Commonwealth System of Higher …, priority 2017, published 2021).

What was measured:
MEFs [1] = experiment: α-SMA immunofluorescence (myofibroblast differentiation); format: cell-based, mouse; details: wildtype MEFs, 48 hours
Protocol: For experiments that required adenoviral gene transfer, MEFs were incubated in adenovirus for 24 hours at which time the media was changed. To knockout Mat, MEFs were transduced with adenovirus encoding Cre-recombinase (Ad-Cre) or βgalactosidase (Ad-(βgal) for 24 h and experiments were performed 5 days post-infection in order to ensure sufficient time for protein turnover. For experiments using adenovirus encoding Glyco-High, Glyco-Low, or mito-R-GECO1, cells were incubated for an additional 24 hours prior to the experiment. The following adenoviruses have previously been described: NFAT-cl-GFP, Glyco-High, Glyco-Low, mito-R-GECO1 (De Windt et al., 2000; Kurland et al., 1992; Salabei et al., 2016; Zhao et al., 2011). Glyco-High and Glyco-Low adenoviruses were made and purified by Vector Labs using cDNA for a rat liver PFKFB1 isoform of phosphofructokinase 2 (PFK2)/ fructose-2,6-bisphosphatase (FBP2). […]
MEFs were seeded on coated 35-mm dishes. […] Images were acquired in the red (590ex/617em) and blue (350ex/461em) channels. α-SMA expression was assessed by quantifying fluorescence intensity and the percentage α-SMA positive cells. More than 50 cells per dish were analyzed.

MICU1 = experiment: Western blot of mtCU components in WT MEFs; format: cell-based, mouse; details: for MICU1 expression: 12 hours after treatment
Protocol: (§1) Myofibroblast differentiation was induced using 10 ng ml^−1 recombinant mouse Transforming growth factor-β (TGFβ) or 10 μM Angiotensin II (AngII,). In all experiments, FBS was reduced to 1% 24 hours prior to and during treatment with TGFβ or AngII.
(§2) All protein samples were lysed by homogenization in RIPA buffer supplemented with phosphatase inhibitors and protease inhibitors. Samples were sonicated briefly and centrifuged at 5,000 g for 10 minutes. The supernatant was collected and used for further analysis. Protein amount was quantified using the Bradford Protein Assay and equal amounts of protein (10-50 μg) were run by electrophoresis on polyacrylamide Tris-glycine SDS gels. Gels were transferred to PVDF and membranes were blocked for 1 hour in Blocking Buffer followed by incubation with primary antibody overnight at 4° C. Membranes were washed in TBS-T 3 times for 5 minutes each and then incubated with secondary antibody for 1 hour at room temperature. After incubation with fluorescent secondary antibodies, membranes were washed in TB S-T 3 times for 5 minutes each and then imaged on a Licor Odyssey system. The following antibodies were used in the study: MCU (1:1,000), MCUb (1:250,), MICU1 (1:500,), MCUR1 (1:500), EMRE (1:250, Santa Cruz, sc-86337), VDAC (1:1,000), PDHE1α phospho 5293 (1:1,000), PDHE1α (1:1,000,), IDH3A (1:500), α-tubulin (1:1,000), ETC respiratory chain complexes (1:2,500), H3K4me3 (1:2,000), H3K9me3 (1:2,000), H3K27me3 (1:2,000), H3K4me2 (1:2,000), H3K9me2 (1:2,000), H3K27me2 (1:2,000), H3 (1:2000); and secondary antibodies: anti-mouse (1:12,000), anti-rabbit, (1:12,000), and anti-goat (1:12,000).

PDH E1α = experiment: Western blot of phosphorylated PDH; format: cell-based, mouse; details: MEFs, 0, 24, 48, or 72 h
Protocol: as §2

NFATc1 = experiment: NFAT translocation assay; format: cell-based, mouse; details: control cells (Ad-βgal), 24 hours
Protocol: MEFs were plated on coated 35-mm dishes and infected with Ad-NFATc1-GFP for 24 hours at which time live-cell images were taken followed by treatment with 10 ng m1^1 TGFP or 10 μM AngII for 24 hours. For live-cell imaging, cells were placed in a 37° C. heated chamber on a Carl Zeiss Axio Observer Z1 fluorescent microscope. Prior to imaging, MEFs were incubated with Hoechst 33342 to demarcate cell nuclei. Images were acquired in the green channel (490ex/525em) and blue channel (350ex/460em). NFAT localization was quantified as the nuclear/cytoplasmic ratio of GFP fluorescence. More than 50 cells per dish were analyzed.

MEFs [2] = experiment: ECAR and OCR measurements (Seahorse XF96) in MEFs; format: cell-based, mouse; details: for increase in glycolysis from baseline: at peak (TGFβ 48 hours, AngII ~12 hours)
Protocol: as §1
A Seahorse Bioscience XF96 extracellular flux analyzer was employed to measure extracellular acidification rates (ECAR) and oxygen consumption rates (OCR). ECAR was measured using the Glycolytic Stress Test Kit and OCR was measured using the Miro Stress Test Kit. To evaluate ECAR, 20,000 MEFs/well were plated in XF media pH 7.4 without supplementation. […] To evaluate OCR, 20,000 MEFs/well were plated in XF media pH 7.4 supplemented with 10 mM glucose and 1 mM sodium pyruvate. […] After each experiment, protein concentration was measured and wells were normalized using the Wave software.

MEFs [3] = experiment: Metabolomic profiling of MEFs (CE-TOFMS, CE-QqQMS); format: cell-based, mouse
Protocol: Cells in a 10 cm dish were washed with 5% (w/w) mannitol (10mL for the first wash, 2 mL for the second wash) and extracted in 800 μL methanol plus 550 μL internal standard solution (Human Metabolome Technologies, HMT). Extracted solution was spun down at 2,300×g at 4° C. for 5 minutes. The supernatant was transferred into centrifugal filter units (HMT) and centrifuged at 9,100×g at 4° C. for ˜3.5 h until no liquid remained in the filter cup. Filtrate was frozen at −80° C. and shipped to HMT for analysis by CE-TOFMS and CE-QqQMS (Boston, Mass.). Filtrate was centrifugally concentrated and resuspended in 50 μl of ultrapure water immediately before the measurement.
Cationic metabolites were analyzed using an Agilent CE-TOFMS system Machine No. 3 and a fused silica capillary (i.d. 50 μm×80 cm) with Cation Buffer Solution as the electrolyte. The sample was injected at a pressure of 50 mbar for 10 seconds. The applied voltage was set at 27 kV. Electrospray ionization-mass spectrometry (ESI-MS) was conducted in the positive ion mode, and the capillary voltage was set at 4,000 V. The spectrometer was scanned from m/z 50 to 1,000.
Anionic metabolites were analyzed using an Agilent Capillary Electrophoresis System equipped with an Agilent 6460 TripleQuad LC/MS Machine No. QqQ3 and a fused silica capillary (i.d. 50 μm×80 cm) with Anion Buffer Solution as the electrolyte. The sample was injected at a pressure of 50 mbar for 25 seconds. The applied voltage was set at 30 kV. ESI-MS was conducted in the positive and negative ion mode, and the capillary voltage was set at 4,000 V for positive and 3, 500 V for negative mode.
Peaks detected in CE-TOFMs analysis were extracted using automatic integration software and those in CE-QqQMS analysis were extracted using automatic integration software in order to obtain peak information including m/z, migration time, and peak area. The peak area was then converted to relative peak area by the following equation: Relative peak area=Metabolite Peak Area/(Internal Standard Peak Area x Normalization Factor). The peaks were annotated based on the migration times in CE and m/z values determined by TOFMS. Putative metabolites were then assigned from HMT metabolite database on the basis of m/z and migration time. All metabolite concentrations were calculated by normalizing the peak area of each metabolite with respect to the area of the internal standard and by using standard curves, which were obtained by three-point calibrations. A heat map was generated using ClustVis. Unit variance was applied to rows. Rows were clustered using Manhattan distance and average linkage.

H3K27me2 [4] = experiment: Western blot of methylated histone 3 lysine residues; format: cell-based, mouse; details: 0, 12 or 24 h treatment
Protocol: as §2

mtCU = target: T1, mtCU (Mus musculus, UniProt Q3UMR5+Q8VCX5); experiment: Evaluation of mCa2+ uptake in permeabilized MEFs (Fura-2, Hill fit); format: cell-based
T1 construct: After treating wildtype (WT) MEFs with TGFβ for 12 hours, fibroblasts were permeabilized with digitonin; endogenous in cells; host or cells: wild-type (C57/BL6) mouse embryonic fibroblasts, digitonin-permeabilized, with or without 12 h TGFβ
Protocol: Before permeabilization, MEFs were washed in extracellular-like Ca^2+-free buffer (120 mM NaCl, 5 mM KCl, 1 mM KH2PO4, 0.2 mM MgCl2, 0.1 mM EGTA, 20 mM HEPEs-NaOH, pH 7.4). MEFs (1.5 million) were then transferred to intracellular-like medium (ICM) (120 mM KCl, 10 mM NaCl, 1 mM KH2PO4, 20 mM HEPES-Tris, protease inhibitors, 5 mM succinate, 2 μM thapsigargin, 40 μg ml^−1 digitonin, 10 μM CGP-37157 (NCLX inhibitor), pH 7.2). ICM was cleared with Chelex 100 to remove trace Ca^2+. MEFs were gently stirred and 1 μM Fura-2 was added to monitor extra-mitochondrial Ca^2+. At 20 seconds, JC-1 was added to monitor Δψ. Fluorescence signals were monitored in a temperature controlled (37° C.) multi-wavelength-excitation/dual-wavelength-emission spectrofluorometer (Delta RAM, Photon Technology Int.) using 490-nm excitation (ex)/535-nm emission (em) for the JC-1 monomer, 570-nm ex/595-nm em for the J-aggregate of JC-1, and 340- and 380-nm ex/510-nm em for Fura-2. […]
To quantify actual Ca^2+ content, a standard curve of Ca^2+ binding Fura-2 was generated from serial diluted Ca^2+ standards (0.01-120 μM) in ICM. Fura-2 fluorescence ratio was converted to [Ca^2+] by the following equation: [Ca^2+]=Kd*(R−Rmin)/(Rmax−R)*Sf2/Sb2. (Rmin (ratio in 0-Ca^2+)=1.341; Rmax (ratio at saturation)=27.915; Sf2 (380/510 reading in 0-Ca^2+)=15822.14; Sb2 (380/510 reading with Ca^2+ saturation)=1794.32). […]

H3K27me2 [5] = experiment: H3K27me2 ChIP-qPCR at Postn and Pdgfra loci; format: cell-based, mouse; details: control cells (Ad-βgal), 12 hours
Protocol: ChIP was performed using the ChIP-IT High Sensitivity. Cells were fixed, lysed and sonicated for 30 minutes (30 seconds on, 30 seconds off) leading to chromatin fragments between 200 and 1200 base pairs. DNA-bound protein was immunoprecipitated using 2 μg anti-H3K27me2 or IgG. Following IP, cross-links were reversed, protein was removed, and DNA was purified. qPCR was performed with equal amounts of H3K27me2-immunoprecipitated sample, IgG-immunoprecipitated sample, and input sample. Values were normalized to input measurements and fold enrichment was calculated. qPCR primers (Table 4) were designed to target gene loci regions flanking or nearby myofibroblast transcription factor predicted binding sites according to Genomatrix-MatInspector Software analysis.

5-methylcytosine (5-mC) = experiment: Global DNA methylation ELISA; format: cell-based, mouse; details: MEFs
Protocol: To extract genomic DNA, cells were collected and washed with PBS followed by 2 h incubation at 60° C. in DNA isolation buffer (0.5% SDS, 100 mM NaCl, 50 mM Tris pH 8, 3 mM EDTA, 0.1 mg/mL proteinase K). DNA was extracted using chloroform followed by ethanol precipitation and dissolved in double-distilled water. DNA methylation was quantified using the MethylFlash™ Methylated DNA Quantification Kit. 100 nanograms of input DNA was used per reaction. Absorbance at 450-nm was measured using a Tecan Infinite F50 microplate reader.

T1 sequence (Q3UMR5 50-350): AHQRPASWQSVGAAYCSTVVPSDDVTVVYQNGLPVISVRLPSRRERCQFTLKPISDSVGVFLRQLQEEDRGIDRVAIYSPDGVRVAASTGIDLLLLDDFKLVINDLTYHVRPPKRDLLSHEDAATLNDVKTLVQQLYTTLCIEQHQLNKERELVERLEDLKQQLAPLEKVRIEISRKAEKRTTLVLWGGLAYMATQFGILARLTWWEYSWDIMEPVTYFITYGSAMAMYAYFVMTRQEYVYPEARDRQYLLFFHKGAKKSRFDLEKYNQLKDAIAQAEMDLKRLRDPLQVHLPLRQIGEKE
T1 sequence (Q8VCX5 34-477): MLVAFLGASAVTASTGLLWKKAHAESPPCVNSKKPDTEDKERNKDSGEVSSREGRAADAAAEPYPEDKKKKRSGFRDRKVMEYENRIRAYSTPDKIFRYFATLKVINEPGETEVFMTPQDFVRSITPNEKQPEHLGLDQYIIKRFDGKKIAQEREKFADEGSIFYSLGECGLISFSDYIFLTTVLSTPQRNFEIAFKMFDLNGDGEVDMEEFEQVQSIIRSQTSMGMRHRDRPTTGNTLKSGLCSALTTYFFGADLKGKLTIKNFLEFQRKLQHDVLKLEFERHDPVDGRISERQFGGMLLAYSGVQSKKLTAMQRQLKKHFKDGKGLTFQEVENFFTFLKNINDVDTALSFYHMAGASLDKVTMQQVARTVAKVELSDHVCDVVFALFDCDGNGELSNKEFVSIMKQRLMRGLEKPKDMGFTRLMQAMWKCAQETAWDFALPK
T1 sequence (Q9DB10 48-107 partner): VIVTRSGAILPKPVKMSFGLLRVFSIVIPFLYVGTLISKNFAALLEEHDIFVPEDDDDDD
T1 sequence (Q8CD10 23-432 partner): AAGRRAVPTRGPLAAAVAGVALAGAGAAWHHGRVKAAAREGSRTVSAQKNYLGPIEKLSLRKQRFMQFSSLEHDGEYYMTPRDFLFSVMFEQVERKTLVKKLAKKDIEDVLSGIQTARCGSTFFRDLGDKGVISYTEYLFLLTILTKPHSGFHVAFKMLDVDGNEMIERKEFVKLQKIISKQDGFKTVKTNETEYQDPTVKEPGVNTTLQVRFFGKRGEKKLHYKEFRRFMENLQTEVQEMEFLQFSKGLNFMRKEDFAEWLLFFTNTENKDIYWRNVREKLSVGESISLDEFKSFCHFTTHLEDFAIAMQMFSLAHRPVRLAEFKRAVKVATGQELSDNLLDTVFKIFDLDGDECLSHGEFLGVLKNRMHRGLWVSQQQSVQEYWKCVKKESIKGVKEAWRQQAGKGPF

Compound	percentage of α-SMA positive cells (MEFs [1])	MICU1 expression (MICU1)	ratio of p-PDH E1α/PDH (PDH E1α)	nuclear translocation of NFATc1 (NFATc1)	basal respiration (MEFs [2])	increase in glycolysis from baseline (MEFs [2])	α-ketoglutarate (αKG) (MEFs [3]; 12 h after treatment)	F-1,6-BP (MEFs [3]; 12 h post-treatment)	citrate levels (MEFs [3]; 12 h post-treatment)	pyruvate (MEFs [3]; control MEFs 12 h post-treatment, from 1000 at baseline)	glutamine (Gln) and glutamate (Glu) levels (MEFs [3]; control cells)	increase in αKG (MEFs [3]; treated fibroblasts)	MICU1/MCU ratio (MICU1)	dimethylation of H3K27 (H3K27me2) (H3K27me2 [4])	Hill coefficient of mCa2+ uptake dose response curve (mtCU; WT MEFs treated 12 hours, control cells 4.29)	mCa2+ uptake (mtCU; following delivery of ~0.5-2 μM [Ca2+], 12 hours treatment)	H3K27me2 enrichment at the Postn and Pdgfra loci (H3K27me2 [5])	global DNA methylation (5-methylcytosine (5-mC))	increase in basal respiration from baseline (MEFs [2]; peaking 48 hours after treatment)
COC(=O)CCC(=O)C(=O)OC [DM-αKG, dimethyl-αKG]	increased the percentage of α-SMA positive cells to the same extent as 48 hours of TGFβ treatment																		
Angiotensin II (DRVYIHPF; Angiotensin-2; UniProt P01019 25-32, looked up) [AngII, pro-fibrotic agonist]		similarly large increase	increased	induced nuclear translocation of NFATc1	slight decrease	45%													
TGFβ: recombinant mouse Transforming growth factor-β, pro-fibrotic agonist		dramatic increase	increased	induced nuclear translocation of NFATc1		> 400%	increased	significantly increased	significantly reduced	1600 pmol/million cells	decreased	~2 fold	rapidly increased	progressive decrease	10.27	decrease	lost	Slight, but non-significant, decreases	~135%
